# Experimental data taken from patent publication US9650389B2, “8-oxoprotoberberine derivative or pharmaceutically acceptable salt thereof, preparation method therefor and pharmaceutical composition for preventing or treating diseases associated with activity of NFAT5, containing same as active ingredient” (Korea Research Institute of Chemical Technology, priority 2013, dated 2017).
# What was measured:
# [1] = Metabolic stability in rat liver microsomes; assay type: in vitro ADME; settings: rat liver microsome fractions, 30 minutes
# Protocol: (§1) Particularly, each compound was added to rat and human liver microsome fractions, followed by culture for 30 minutes. Each compound was administered via intravenous injection (iv) and oral-administration (po) to rat at the concentration of 5 mg/kg, followed by making pharmacokinetic profiles.
# [2] = Cytotoxicity test (WST-8), L929; assay type: cell-based; settings: mouse, L929 fibroblast cells (NCTC clone 929); L929, 24 hours
# Protocol: (§2) To investigate the cytotoxicity of the derivative of the present invention, 5 kinds of cell lines (VERO: African green monkey kidney cell line, HFL-1: human embryonic lung cell line, L929: NCTC clone 929, mouse fibroblast cell line, NIH 3T3: mouse embryonic fibroblast cell line, and CHO-K1: Chinese hamster ovary cell line) were distributed in a 96-well plate at the density of 1×10^4 cells/well, which were treated with the compound of the present invention for 24 hours. The water-soluble tetrazolium salt WST-8 was added thereto. The orange colored formazan dye degraded by dehydrogenase in the live cells was read, followed by nonlinear regression to determine 50% growth inhibition concentration.
# NFATc = assay: NFAT (NFATc) transcriptional activity, THP1-XBlue-MD2-CD14 cells, SEAP; assay type: cell-based; settings: LPS 1 μg/ml, 24 hours, FIG. 2B
# Protocol: To evaluate the transcriptional activity of NFAT, THP1-XBlue-MD2-CD14 cells were cultured in 10% FBS-RPMI (supplemented with 200 μg/ml of Zeocin and 250 μg/ml of G418). First, the cells were distributed in a 96-well plate at the density of 2×10^4 cells/well, followed by culture. 1 μg/ml of LPS and the compound of the invention were added thereto, followed by culture for 24 hours. 20 μl of the supernatant was added with 180 μl of secreted embryonic alkaline phosphatase (SEAP) detection medium, followed by culture for 2 hours. Then, OD655 was measured.
# [3] = Cytotoxicity test (WST-8), HFL-1; assay type: cell-based; settings: human, HFL-1 embryonic lung cells; HFL-1, 24 hours
# Protocol: as §2
# NFAT5 = molecular target: T1, NFAT5 (Mus musculus, UniProt Q9WV30); assay: NFAT5 reporter screening (GFP, HCS) in LPS-treated Raw264.7 cells; assay type: cell-based; settings: for Inhibition rate of NFAT5 transcription (%): Raw264.7 reporter, LPS 1 μg/ml, 48 hours
# T1 construct: endogenous in cells; host or cells: RAW264.7
# T1 sequence (Q9WV30 whole entry): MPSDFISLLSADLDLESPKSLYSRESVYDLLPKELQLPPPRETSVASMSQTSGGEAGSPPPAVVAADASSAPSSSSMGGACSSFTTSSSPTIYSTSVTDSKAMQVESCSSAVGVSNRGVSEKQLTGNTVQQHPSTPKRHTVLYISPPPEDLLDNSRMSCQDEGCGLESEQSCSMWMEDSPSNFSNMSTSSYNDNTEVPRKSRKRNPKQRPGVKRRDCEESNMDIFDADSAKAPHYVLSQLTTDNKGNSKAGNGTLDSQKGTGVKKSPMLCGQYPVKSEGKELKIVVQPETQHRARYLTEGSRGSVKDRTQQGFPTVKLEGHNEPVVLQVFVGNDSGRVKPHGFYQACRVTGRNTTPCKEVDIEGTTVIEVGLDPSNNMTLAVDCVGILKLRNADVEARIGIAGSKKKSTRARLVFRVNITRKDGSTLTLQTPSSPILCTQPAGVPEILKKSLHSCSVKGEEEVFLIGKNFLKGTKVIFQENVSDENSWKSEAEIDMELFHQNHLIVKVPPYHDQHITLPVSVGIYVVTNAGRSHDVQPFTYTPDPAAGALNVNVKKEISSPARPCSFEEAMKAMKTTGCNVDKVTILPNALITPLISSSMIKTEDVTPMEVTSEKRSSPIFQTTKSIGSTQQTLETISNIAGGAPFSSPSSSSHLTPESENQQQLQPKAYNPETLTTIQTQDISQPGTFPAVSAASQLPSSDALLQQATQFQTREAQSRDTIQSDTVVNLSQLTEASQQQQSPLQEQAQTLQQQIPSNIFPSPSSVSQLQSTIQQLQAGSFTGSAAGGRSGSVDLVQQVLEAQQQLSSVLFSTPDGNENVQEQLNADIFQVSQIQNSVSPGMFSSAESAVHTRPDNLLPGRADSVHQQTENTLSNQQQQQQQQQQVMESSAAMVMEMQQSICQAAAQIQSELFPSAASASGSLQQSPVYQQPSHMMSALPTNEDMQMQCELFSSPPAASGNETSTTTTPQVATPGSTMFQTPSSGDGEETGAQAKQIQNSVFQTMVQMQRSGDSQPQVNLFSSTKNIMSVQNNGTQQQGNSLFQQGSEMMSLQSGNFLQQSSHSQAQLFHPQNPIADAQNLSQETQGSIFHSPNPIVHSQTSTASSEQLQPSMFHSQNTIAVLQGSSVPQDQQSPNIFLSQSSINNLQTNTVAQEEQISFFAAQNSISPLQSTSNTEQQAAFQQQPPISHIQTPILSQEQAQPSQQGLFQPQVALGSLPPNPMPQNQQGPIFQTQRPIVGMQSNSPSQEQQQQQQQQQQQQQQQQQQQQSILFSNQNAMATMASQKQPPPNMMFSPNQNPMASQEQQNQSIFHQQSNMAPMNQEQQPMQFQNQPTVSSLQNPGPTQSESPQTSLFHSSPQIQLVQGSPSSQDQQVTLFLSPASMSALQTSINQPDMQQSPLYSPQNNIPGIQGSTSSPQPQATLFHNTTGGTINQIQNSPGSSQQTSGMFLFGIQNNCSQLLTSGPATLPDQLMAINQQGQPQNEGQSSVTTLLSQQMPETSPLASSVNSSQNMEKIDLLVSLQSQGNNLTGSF
# Protocol: To investigate whether or not the derivative of the present invention could inhibit the transcriptional activity of NFAT5, NFAT5 reporter screening was performed. A plasmid vector was constructed by eliminating CMV promoter sequence from the backbone and inserting NFAT5 binding site sequence ([…]) instead. Raw264.7 cells transfected with the vector were cultured in 10% FBS-PRMI (supplemented with 500 μg/ml G418). The cells were distributed in a 96-well plate at the density of 3×10^3 cells/well, followed by further culture for one more day. The cells were treated with LPS at the concentration of 1 μg/ml for 48 hours. Then, the cells were fixed and the expression level of GFP was measured by HCS fluorescence image (Thermo, ArrayScan^VTI).
# [4] = Metabolic stability in human liver microsomes; assay type: in vitro ADME; settings: human liver microsome fractions, 30 minutes
# Protocol: as §1
# [5] = Cytotoxicity test (WST-8), NIH 3T3; assay type: cell-based; settings: mouse, NIH 3T3 embryonic fibroblast cells; NIN3T3, 24 hours
# Protocol: as §2
# [6] = Cytotoxicity test (WST-8), VERO; assay type: cell-based; settings: African green monkey, VERO kidney cells
# Protocol: as §2
# [7] = Cytotoxicity test (WST-8), CHO-K1; assay type: cell-based; settings: Chinese hamster, CHO-K1 ovary cells; CHO-K1, 24 hours
# Protocol: as §2
# iNOS = assay: Inhibition of LPS-induced iNOS induction in Raw264.7 cells (Griess reagent); assay type: cell-based; settings: Mus musculus, Raw264.7, LPS 100 ng/ml, 24 hours, read-out: Inhibition rate of iNOS induction (%)
# Protocol: To investigate whether or not the derivative of the present invention could inhibit iNOS inducement, Raw264.7 cells (mouse macrophages) were distributed in a 384-well plate at the density of 3×10^4 cells/well. The cells were treated with LPS at the concentration of 100 ng/ml, followed by culture at 37° C. for 24 hours. The concentration of […] increased in the medium was measured by using Griess reagent. The inhibition rate was calculated by mathematical formula based on the detected signals. The results are shown in Table 2. % inhibition=(mean value of sample−mean value of negative control)/(mean value of positive control −mean value of negative control)×100 [Mathematical Formula 1]
"remaining compound, Rat (%) [1]",Inhibition rate of NFAT5 transcription (%) (NFAT5; 1 μM),Inhibition rate of NFAT5 transcription (%) (NFAT5; 10 μM),"remaining compound, Human (%) [4]",Structure (SMILES),GI50 at 24 h [2],inhibition of NFAT promoter / transcriptional activity (in words) (NFATc),GI50 at 24 h [3],inhibiting NFAT5 activity (in words) (NFAT5; Table 3 and FIG. 1),GI50 at 24 h [5],GI50 at 24 h [6],GI50 at 24 h [7],inhibition at 1 µM (iNOS; 1 μM),inhibition at 10 µM (iNOS; 10 μM)
18.5 ± 5.2%,24.6%,108.8%,63.7 ± 2.4%,"COc1ccc2c(Cc3c(F)cccc3F)c3n(c(=O)c2c1OC)CCc1cc2c(cc1-3)OCO2 [Example 3, 13-(2,6-difluorobenzyl)-9,10-dimethoxy-5H-[1,3]dioxolo[4,5-g]isoquinolino[3,2-a]isoquinoline-8(6H)-one]",47.7 µM,slightly,32.8 µM,remarkably excellent in inhibiting NFAT5 activity,10.2 µM,84.9 µM,16.7 µM,74.1%,113%
0.82 ± 0.16%,,,3.88 ± 0.24%,"O=C1CC2(CCCC2)CC(=O)N1CCCCN1CCN(c2ncccn2)CC1 [buspirione, reference compound]",,,,,,,,,
